Measured values: patent publication EP3800188A1, “SUBSTITUTED PYRAZOLOPYRIMIDINES AS IRAK4 INHIBITORS” (Bayer AG, priority 2019, dated 2021)
pIC50: −log10 of the molar value.

What was measured:
[1] = Metabolic stability in human liver microsomes; details: 1 µM compound; for CLblood, human microsomes: hepatic in vivo blood clearance calculated with well stirred liver model, '(stable)' given beside < 0.01; for Fmax, human microsomes: maximal oral bioavailability calculated with well stirred liver model, 0.5 mg/mL protein, '(stable)' given beside 100
[2] = molecular target: T1, human IRAK4 (Homo sapiens, UniProt Q9NWZ3); assay: Human IRAK4 kinase activity inhibition assay (IRAK4 TR-FRET assay); format: biochemical; details: 1 mM ATP, GST-human IRAK4, average or median values
T1 construct: GST (N); made in house; host or cells: baculovirus-infected Hi5 (BTI-TN-5B1-4) insect cells
T1 sequence (Q9NWZ3 1-460): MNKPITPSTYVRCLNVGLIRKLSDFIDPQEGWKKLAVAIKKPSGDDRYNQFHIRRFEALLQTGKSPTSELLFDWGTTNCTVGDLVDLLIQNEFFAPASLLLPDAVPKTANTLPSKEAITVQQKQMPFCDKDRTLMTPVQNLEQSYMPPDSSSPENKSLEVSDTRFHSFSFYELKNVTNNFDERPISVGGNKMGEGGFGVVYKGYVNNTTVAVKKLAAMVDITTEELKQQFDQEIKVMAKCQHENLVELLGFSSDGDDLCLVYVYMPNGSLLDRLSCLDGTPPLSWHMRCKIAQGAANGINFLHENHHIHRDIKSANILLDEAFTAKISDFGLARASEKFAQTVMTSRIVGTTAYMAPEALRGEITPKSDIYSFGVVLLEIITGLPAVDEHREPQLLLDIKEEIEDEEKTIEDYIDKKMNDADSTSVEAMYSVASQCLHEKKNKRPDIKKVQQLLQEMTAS
Outline: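 GST-IRAK4 from insect cells (about 0.2 nM, linear range) was preincubated 15 min with compound (11 concentrations, 20 µM–0.073 nM) in HEPES pH 7.5 with MgCl2 and DTT before kinase reaction on a biotinylated peptide. Phosphopeptide was detected by TR-FRET (Eu anti-mouse-IgG/anti-phosphoserine/streptavidin-XL665, 1 h at 22°C) as the 665/620 nm ratio, normalized to no-compound and no-enzyme controls.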

Compound	CLblood, human microsomes [1]	Fmax, human microsomes [1]	pIC50 [2]
O=C1C[C@H](Nc2nc(N3CCC(N4CCOCC4)CC3)c3cnn(-c4cccc(C(F)(F)F)c4)c3n2)CN1 [Example I-27, (4S)-4-({4-[4-(morpholin-4-yl)piperidin-1-yl]-1-[3-(trifluoromethyl)phenyl]-1H-pyrazolo[3,4-d]pyrimidin-6-yl}amino)pyrrolidin-2-one]	0.17 L/h/kg	87%	8.15
O[C@@H]1CN(c2nc(N[C@H]3C[C@H](O)C3)nc3c2cnn3-c2cccc(C(F)(F)F)c2)C[C@H]1O [Example I-101, (3R,4R)-1-(6-{[(1r,3R)-3-hydroxycyclobutyl]amino}-1-[3-(trifluoromethyl)phenyl]-1H-pyrazolo[3,4-d]pyrimidin-4-yl)pyrrolidine-3,4-diol]	0.35 L/h/kg	73%	8.55
CC(C)(O)CC1CN(c2nc(NC3CCS(=O)(=O)CC3)nc3c2cnn3-c2cccc(C(F)F)c2)C1 [II-7, 1-(1-{1-[3-(difluoromethyl)phenyl]-6-[(1,1-dioxidotetrahydro-2H-thiopyran-4-yl)amino]-1H-pyrazolo[3,4-d]pyrimidin-4-yl}azetidin-3-yl)-2-methylpropan-2-ol]	< 0.01 (stable) L/h/kg	100 (stable) %	8.27
CC1(N2CCOCC2)CN(c2nc(NC3CCS(=O)(=O)CC3)nc3c2cnn3-c2cccc(C(F)(F)F)c2)C1 [Example I-106, N-(1,1-dioxidotetrahydro-2H-thiopyran-4-yl)-4-[3-methyl-3-(morpholin-4-yl)azetidin-1-yl]-1-[3-(trifluoromethyl)phenyl]-1H-pyrazolo[3,4-d]pyrimidin-6-amine]	0.68 L/h/kg	48%	8.04
CC(C)(O)CC1CN(c2nc(N[C@@H]3CNC(=O)C3)nc3c2cnn3-c2cccc(C(F)(F)F)c2)C1 [Example I-49, (4S)-4-({4-[3-(2-hydroxy-2-methylpropyl)azetidin-1-yl]-1-[3-(trifluoromethyl)phenyl]-1H-pyrazolo[3,4-d]pyrimidin-6-yl}amino)pyrrolidin-2-one]	0.13 L/h/kg	90%	8.41
CC1(O)CCN(C2CN(c3nc(N[C@H]4C[C@@](C)(O)C4)nc4c3cnn4-c3cccc(C(F)(F)F)c3)C2)CC1 [Example I-111, 1-(1-{6-[(cis-3-hydroxy-3-methylcyclobutyl)amino]-1-[3-(trifluoromethyl)phenyl]-1H-pyrazolo[3,4-d]pyrimidin-4-yl}azetidin-3-yl)-4-methylpiperidin-4-ol]	0.13 L/h/kg	90%	7.95
CC(C)(O)CC1CN(c2nc(NC3CN(S(C)(=O)=O)C3)nc3c2cnn3-c2cccc(C(F)F)c2)C1 [II-14, 1-[1-(1-[3-(difluoromethyl)phenyl]-6-{[1-(methylsulfonyl)azetidin-3-yl]amino}-1H-pyrazolo[3,4-d]pyrimidin-4-yl)azetidin-3-yl]-2-methylpropan-2-ol]	< 0.01 (stable) L/h/kg	100 (stable) %	8.15
CC(C)(O)C1CCN(c2nc(N[C@H]3C[C@@]4(CCN4)C3)nc3c2cnn3-c2cccc(C(F)F)c2)CC1 [II-18, 2-(1-{6-[(4r,6s)-1-azaspiro[3.3]heptan-6-ylamino]-1-[3-(difluoromethyl)phenyl]-1H-pyrazolo[3,4-d]pyrimidin-4-yl}piperidin-4-yl)propan-2-ol]	0.10 L/h/kg	93%	8.85
C[C@H]1CN(c2nc(N[C@H]3C[C@H](S(C)(=O)=O)C3)nc3c2cnn3-c2cccc(C(F)F)c2)C[C@@H]1O (relative stereo) [II-17-1, rel-(3R,4S)-1-(1-[3-(difluoromethyl)phenyl]-6-{[trans-3-(methylsulfonyl)cyclobutyl]-amino}-1H-pyrazolo[3,4-d]pyrimidin-4-yl)-4-methylpyrrolidin-3-ol]	0.10 L/h/kg	93%	8.58
C[C@]1(O)C[C@@H](Nc2nc(N3CC(N4CCOCC4)C3)c3cnn(-c4cccc(C(F)(F)F)c4)c3n2)C1 [Example I-78, cis-1-methyl-3-({4-[3-(morpholin-4-yl)azetidin-1-yl]-1-[3-(trifluoromethyl)phenyl]-1H-pyrazolo[3,4-d]pyrimidin-6-yl}amino)cyclobutanol]	0.32 L/h/kg	76%	8.25
CC(C)(O)C1CCN(c2nc(N[C@H]3CN4CCC3CC4)nc3c2cnn3-c2cccc(C(F)(F)F)c2)CC1 [Example I-64-1, 2-(1-{6-[(3R)-1-azabicyclo[2.2.2]octan-3-ylamino]-1-[3-(trifluoromethyl)phenyl]-1H-pyrazolo[3,4-d]pyrimidin-4-yl}piperidin-4-yl)propan-2-ol]	0.32 L/h/kg	76%	8.07
CC1(N2CCOCC2)CN(c2nc(N[C@H]3C[C@@H](O)C3)nc3c2cnn3-c2cccc(C(F)(F)F)c2)C1 [Example I-76, cis-3-({4-[3-methyl-3-(morpholin-4-yl)azetidin-1-yl]-1-[3-(trifluoromethyl)phenyl]-1H-pyrazolo[3,4-d]pyrimidin-6-yl}amino)cyclobutanol]	0.30 L/h/kg	77%	8.02
O[C@H]1C[C@@H](Nc2nc(N3CC(N4CCOCC4)C3)c3cnn(-c4cccc(C(F)F)c4)c3n2)C1 [II-24, cis-3-({1-[3-(difluoromethyl)phenyl]-4-[3-(morpholin-4-yl)azetidin-1-yl]-1H-pyrazolo[3,4-d]pyrimidin-6-yl}amino)cyclobutanol]	< 0.01 (stable) L/h/kg	100 (stable) %	8.25
CCC1(O)CN(c2nc(N[C@@H]3CNC(=O)C3)nc3c2cnn3-c2cccc(C(F)(F)F)c2)C1 [Example I-3-1, (4S)-4-({4-(3-ethyl-3-hydroxyazetidin-1-yl)-1-[3-(trifluoromethyl)phenyl]-1H-pyrazolo[3,4-d]pyrimidin-6-yl}amino)pyrrolidin-2-one]	0.46 L/h/kg	65%	8.01
O=C1CCCN1C1CN(c2nc(N[C@H]3C[C@H](O)C3)nc3c2cnn3-c2cccc(C(F)(F)F)c2)C1 [Example I-113, 1-(1-{6-[(trans-3-hydroxycyclobutyl)amino]-1-[3-(trifluoromethyl)phenyl]-1H-pyrazolo-[3,4-d]pyrimidin-4-yl}azetidin-3-yl)pyrrolidin-2-one]	0.03 L/h/kg	98%	8.44
CS(=O)(=O)[C@H]1C[C@H](Nc2nc(N3CC(N4CCOCC4)C3)c3cnn(-c4cccc(C(F)F)c4)c3n2)C1 [II-8, 1-[3-(difluoromethyl)phenyl]-N-[trans-3-(methylsulfonyl)cyclobutyl]-4-[3-(morpholin-4-yl)azetidin-1-yl]-1H-pyrazolo[3,4-d]pyrimidin-6-amine]	< 0.01 (stable) L/h/kg	100 (stable) %	8.70
C[C@]1(N)C[C@@H](Nc2nc(N3CCOCC3)c3cnn(-c4cccc(C(F)(F)F)c4)c3n2)C1 [Example I-58, cis-1-methyl-N^3-{4-(morpholin-4-yl)-1-[3-(trifluoromethyl)phenyl]-1H-pyrazolo[3,4-d]pyrimidin-6-yl}cyclobutane-1,3-diamine]	< 0.01 (stable) L/h/kg	100 (stable) %	7.64
CC1(O)CCN(C2CN(c3nc(N[C@@H]4CNC(=O)C4)nc4c3cnn4-c3cccc(C(F)(F)F)c3)C2)CC1 [Example I-30, (4S)-4-({4-[3-(4-hydroxy-4-methylpiperidin-1-yl)azetidin-1-yl]-1-[3-(trifluoromethyl)phenyl]-1H-pyrazolo[3,4-d]pyrimidin-6-yl)amino)pyrrolidin-2-one]	< 0.01 (stable) L/h/kg	100 (stable) %	8.21
